Experimental data from the METLIN SMRT retention time set (Domingo-Almenara et al. 2019).

Test: gradient 5% acetonitrile 3 min, to 50% in 2 min, to 85% in 15 min, held 3 min, 100 µL/min
Conditions: column: Zorbax Extend-C18 2.1 x 50 mm; eluents: water / acetonitrile, 0.1% formic acid
How it was run: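 Using water and acetonitrile that each contained 0.1% formic acid, mixtures of ~100 pure standards were separated at 100 μL/min on a Zorbax Extend-C18 column (2.1 × 50 mm, 1.8 μm). The HPLC fed a quadrupole time-of-flight mass spectrometer working in positive and negative ionization mode, with dead and dwell volumes of 40 μL and 900 μL. Data were acquired over 3 months. Retention time was read from computationally picked adduct peaks after manual inspection of each.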

Compound | RP-LC retention time
CCN1CCN(C(=O)C(C)C2CCN(S(=O)(=O)c3ccc(Cl)s3)CC2)CC1 (configuration not stated) | 666 s
CCOc1ccc(-n2c(N(CC)CC)nc3cc(C(=O)OC)ccc3c2=O)cc1 | 1230 s
Cc1ccc(-c2nnc(CC(=O)NCC(C)C)o2)cc1 | 775 s
Cc1c(C(=O)N2CCCC(C)C2)cnn1-c1ccc(-c2nc(C(C)C)no2)cn1 (configuration not stated) | 1120 s
Cn1cc(-c2nc(C(=O)NCc3ccc(F)c(Cl)c3)cs2)c2cccnc21 | 975 s
CCCCN1C(=O)C(C)(C(=O)Nc2ccc(C)cc2)Oc2cccnc21 (configuration not stated) | 1060 s
CCn1c(=O)sc2cc(S(=O)(=O)N3CCC(C(=O)N4CCC(C)CC4)CC3)ccc21 | 900 s
CCc1noc(NC(C)=O)c1-c1ccc(OC)c(S(=O)(=O)N2CCCC2)c1 | 710 s
CCCCn1cc(S(=O)(=O)Nc2cc(C)ccc2F)c2cccnc21 | 754 s
CC(=O)c1c(C)oc2ccc(NS(=O)(=O)c3cccc([N+](=O)[O-])c3)cc12 | 822 s
Cc1ccc(NC(=O)C2CCCN(S(=O)(=O)c3cn(C(C)C)cn3)C2)c(Br)c1 (configuration not stated) | 850 s
O=C(NCCN1CCCCCC1)C1CCCN(c2nn3c(=O)c4c(nc3s2)CCCC4)C1 (configuration not stated) | 608 s
CC(C)(C)c1ccc(S(=O)(=O)c2nnn(-c3ccc4c(c3)OCCO4)c2N)cc1 | 944 s
O=C(Cc1csc2nc(-c3cccc(Br)c3)cn12)NC1CCCCC1 | 952 s
COC(=O)CNC(=O)N1CCC2(CC1)Nc1cc(F)ccc1-n1cccc12 | 816 s
Cc1ccc(Oc2nccnc2N2CCCC(C(=O)NCc3ccc(C)c(C)c3)C2)cc1 (configuration not stated) | 1140 s
CCC(C)Sc1nnc(NC(=O)C2CCN(C(=O)c3cccc(F)c3)CC2)s1 (configuration not stated) | 877 s
CCN(Cc1ccccc1)C(=O)C1CCN(S(=O)(=O)c2ccc3c(c2)NC(=O)CO3)CC1 | 852 s
O=C(C1CC(=O)N(C2CCCC2)C1)N1CCC(c2c[nH]c3ccccc23)(c2c[nH]c3ccccc23)CC1 (configuration not stated) | 850 s
C=CCN(CC=C)C(=O)C1CCN(C(=O)c2cccc(F)c2)CC1 | 1250 s
CCCCC(=O)Nc1ccc(OCc2cc(C(=O)NC(C)C)no2)cc1 | 827 s
CCCn1ccc2sc(C)c(C(=O)NC3CCCC3)c2c1=O | 760 s

Compound | RP-LC retention time
O=C(CN1N=C(C(=O)Nc2ccc(F)cc2)CCC1=O)Nc1cc(F)ccc1F | 831 s
COC(=O)c1cc(S(=O)(=O)N2CCCC2C(=O)Nc2ccccc2)cn1C (configuration not stated) | 818 s
COCCn1cc(C(=O)NC2CCCCC2)c2nn(-c3ccccc3)c(=O)c-2c1 | 925 s
Cn1c(=O)sc2cc(S(=O)(=O)N3CCC(C(=O)NCc4ccccc4Cl)CC3)ccc21 | 883 s
Cc1ccc(C(CC(=O)NCCN2CCOCC2)N2Cc3ccccc3C2=O)cc1 (configuration not stated) | 642 s
Cc1nn2c(CNS(=O)(=O)c3ccc(F)cc3)c(-c3ccccc3)nc2s1 | 859 s
CCCN1C(=O)CN(S(C)(=O)=O)CC1(C)C(=O)NCc1ccc(Cl)cc1 (configuration not stated) | 758 s
CCc1noc2nc(C)n(CC(=O)NCc3ccccc3OC)c(=O)c12 | 832 s
Cc1ccc(C(=O)N2CCCC(COc3ccc(C(=O)NC(C)C)cc3)C2)cc1C (configuration not stated) | 931 s
Cc1nc2ccc(NC(=O)c3cccnc3)cc2c(=O)n1-c1ccc(F)cc1 | 623 s
O=C(c1cc(-c2ccncc2)n[nH]1)N1CCN(C(=O)C2CCCC2)CC1 | 588 s
CCNC(=O)c1cccc(Nc2c(-c3ccc(SC)cc3)nc3cnccn23)c1 | 887 s
NC(=O)COc1c(F)cc(SCCNS(=O)(=O)c2ccccc2)cc1F | 847 s
COc1ccc(CCc2nc3nccc(-c4ccccc4)n3n2)cc1OC | 821 s
COc1cccc(C(=O)N2CCN(c3cc(-c4cccs4)[nH]n3)CC2)c1OC | 722 s
CCOCCCNC(=O)c1c(N)n(-c2ccc(C(C)=O)cc2)c2nc3ccccc3nc12 | 876 s
CN1C(=O)CCc2cc(NS(=O)(=O)c3ccccc3C(F)(F)F)ccc21 | 779 s
O=C(CCc1c(-c2ccc(F)cc2)nc2ccccn12)Nc1ccccc1C(F)(F)F | 691 s
CN(C)c1ncncc1N1CCC(C(=O)N2CCN(c3ccc(F)cc3)CC2)CC1 | 641 s
Nc1c(C(=O)Nc2ccccc2F)sc2nc3c(cc12)CCCC3 | 996 s
CN1CCN(CCNC(=O)c2nn(-c3ccc(Cl)cc3)c3c(=O)n(C)cnc23)CC1 | 602 s
O=C(CCC(=O)N1CC2CCCN2c2ccccc21)NCCCN1CCCCC1 (configuration not stated) | 646 s

Compound | RP-LC retention time
COc1ccc(N2C(=O)CCS2(=O)=O)cc1S(=O)(=O)N1CCC(C(N)=O)CC1 | 612 s
CC(C)c1ccc(-n2nc(N3CCN(C(=O)c4cc5ccccc5[nH]4)CC3)ccc2=O)cc1 | 998 s
COCc1nc2cccnc2n1C1CCN(C(=O)Nc2ccc(Cl)cc2)CC1 | 744 s
CCOC(=O)c1cc(S(=O)(=O)N2CCCC2C(=O)Nc2ccc(C(C)C)cc2)cn1C (configuration not stated) | 1070 s
CCCc1ccc(S(=O)(=O)N2CCN(c3nc4ccncc4n(C)c3=O)CC2)cc1 | 699 s
COc1cc([C@@H]2c3cc4c(cc3[C@H](O)[C@@H](CO)[C@@H]2C(=O)NCCc2ccccc2)OCO4)cc(OC)c1OC | 745 s
Cc1ccc(F)c(NS(=O)(=O)c2cc3c(s2)CCN(C(=O)C2CC2)C3)c1 | 848 s
NS(=O)(=O)c1ccc(CNC(=O)C2CN(C(=O)c3ccc(F)c(F)c3)C2)cc1 | 631 s
COc1cccc(NC(=O)C2CCN(S(=O)(=O)c3ccc4c(c3)CCCC(=O)N4)CC2)c1 | 755 s
Cc1ccc(-n2nc(C)c3sc(N(C)CC(=O)N4CCC5(CC4)OCCO5)nc32)cc1 | 932 s
COCc1noc([C@@H]2CN(C(=O)c3ccc(Cl)s3)C[C@H]2C(N)=O)n1 | 676 s
Cn1cc(S(=O)(=O)N2CCC(C(=O)Nc3ccc4c(c3)OCO4)CC2)cc1C(=O)N1CCCC1 | 716 s
Cn1nc(-c2nnc(-c3ccc(F)cc3)o2)c2c1CCN(S(=O)(=O)c1cccc(Cl)c1)C2 | 987 s
Cc1ccc(C(=O)NCc2[nH]nc3ccccc23)cc1C | 788 s
CC(=O)N1c2ccc(S(=O)(=O)N3CCCCC3)cc2CC1C(=O)N1CCN(c2ccccn2)CC1 (configuration not stated) | 645 s
O=C(NCc1ccccc1)c1ccc(NC(=O)C2CCC2)cc1N1CCOCC1 | 842 s
COc1ccc(C2C(=O)N(C3CCCCC3)CC(=O)N2Cc2ccc3c(c2)OCO3)cc1 (configuration not stated) | 893 s
CSc1cccc(NC(=O)CCc2c(-c3ccccc3)nc3ccccn23)c1 | 691 s
CCOc1ccc(-c2noc(-c3nc(C)no3)n2)cc1 | 986 s
N#CCn1nc2n(c1=O)CCN(S(=O)(=O)c1cccc3cccnc13)CC2 | 702 s
Cc1cccc(-n2c(=O)c3sccc3n(Cc3nc(-c4ccccc4C)no3)c2=O)c1 | 1070 s
CCOc1ccccc1NC(=O)NCCc1cn(C)c2ncccc12 | 733 s

Compound | RP-LC retention time
Nc1ccc(Nc2ccccc2)c(S(=O)(=O)O)c1 | 639 s
O=C(C1CCCN(c2cnc3nccnc3c2)C1)N1CCN(c2ccccc2F)CC1 (configuration not stated) | 778 s
CCc1ccc2c(c1)cc(S(=O)(=O)c1ccccc1)c(=O)n2CC(=O)N1CCCCC1 | 620 s
CCOC(=O)Cc1ccc(NC(=O)N2CCC3(CC2)NC(=O)c2ccccc2O3)cc1 | 761 s
Cc1nnc(-c2nnc(NCCC(C)C)c3ccccc23)o1 | 710 s
Cc1[nH]nc(-c2c(C)sc(C)c2S(=O)(=O)NCc2ccc(Cl)cc2)c1C | 1100 s
O=C(Nc1ccc(F)c(Cl)c1)C1CCN(C(=O)NCc2cccs2)CC1 | 764 s
COc1ccc(OCC(=O)N2CCN(c3nc(CN4CCOCC4)cs3)CC2)cc1 | 611 s
O=C(C1CC1)N1CCC2(CCCCO2)CC1 | 668 s
COCCCNC(=O)C1CCN(c2cncnc2N(C)C)CC1 | 568 s
Cc1cc(N2CCN(C(=O)c3c(F)cccc3F)CC2)nc(N2CCOCC2)n1 | 613 s
Clc1ccc2nc(-c3ccccc3)c(Nc3ccc4c(c3)OCCO4)n2c1 | 746 s
Cc1ncoc1C(=O)N1CCCCCNC(=O)[C@@H]2CCC[C@@H]21 | 621 s
Cc1ccc(C(=O)N2CCCn3cc(-c4cccc(C#N)c4)nc32)cn1 | 636 s
CC1=C(c2ccccc2)S(=O)(=O)N=C1N1CCC(NC(=O)C2CCC2)CC1 | 753 s
Cc1ccc(-c2ccc(N3CCCC(C(=O)NC4CC4)C3)nn2)cc1 (configuration not stated) | 631 s
CCOc1ccc(NC(=O)N(Cc2ccc3c(c2)OCO3)C2CCN(CC)CC2)cc1 | 661 s
CCN1C(=O)c2cc(S(=O)(=O)Nc3ccc(C)cc3F)ccc2Oc2cccnc21 | 1030 s
O=C(CSc1n[nH]c(-c2ccc(F)cc2)n1)Nc1ccc(F)cc1F | 853 s
CCc1nc2nccc(-c3ccc(OC)c(OC)c3)n2n1 | 702 s
COc1ccc2[nH]cc(CCN3CC(C(=O)Nc4nnc(C(C)(C)C)s4)CC3=O)c2c1 (configuration not stated) | 744 s
